The source of these data is patent US20200199174A1, “NOVEL FLUORESCENT LABELING METHOD” (priority 2017, published 2020).

Series [1] deals with HeLa cells expressing ECFP-5D4. Nature of the series: Long-term-stable fluorescence imaging based on tag/probe binding/dissociation equilibrium. The settings on record: 10 nM probe in extracellular fluid, whole cell irradiated with intense excitation light. As to the method: HeLa cells expressing ECFP-5D4 were immersed for one hour at room temperature in HBS including 10 nM 6SiR-pCOONHMeoNP, and fluorescence imaging thereof was performed without modification of this state with the probe present at a concentration of 10 nM in the extracellular fluid. […] In super-resolution imaging and other fluorescence observation in which photobleaching has hitherto been a serious problem, the tag/probe method developed herein has the revolutionary characteristic of making it possible to obtain a semi-permanent fluorescence signal without limitation by photobleaching.

In series [2] the test system is 5D4 fusion proteins in HeLa cells. Nature of the series: Fluorescent labeling of 5D4 fusion proteins expressed in HeLa cells (live cell imaging). Format: cell-based. As to the method:
HEK293T cells and HeLa cells were cultured in Dulbecco's Modified Eagle's Medium (DMEM, Wako) including 10% fetal bovine serum (FBS, SIGMA) at a carbon dioxide concentration of 5% and a temperature of 37° C.
Gene transfer into HeLa cells was performed using lipofection. For the HeLa cells under culture in a 24-well dish, 25 μL of Opti-MEM I (GIBCO) to which 0.5 μg of a plasmid had been added was added to a mixed solution of 2 μL of Lipofectamine 2000 (Invitrogen) and 25 μL of Opti-MEM I and incubated for five minutes at room temperature. This mixture was added to 500 μL of a medium 90-100% confluent with HEK293T cells and HeLa cells, and culturing was performed at 37° C. at a carbon dioxide concentration of 5%. Cell concentration was diluted to 1/10 5 to 8 hours after transfection, and cells were re-seeded on a glass dish. Cells were subjected to various imaging experiments after 24 hours had passed since transfection.
Cells were observed using an inverted microscope (IX-71, Olympus) provided with a xenon arc lamp. Images were captured using an EM-CCD camera (iXon EM+, Andor). During acquisition of a 6SiR-DNP fluorescence image, a Cy5-4040C filter set (Semrock) comprising a 608-648 nm excitation light filter, a 660 nm dichroic mirror, and a 672-712 nm absorption filter was used.
During acquisition of a CFP fluorescence image, a U-MCFPHQ filter set (Olympus) comprising a 424-438 nm excitation light filter, a 450 nm dichroic mirror, and a 460-510 nm absorption filter was used. An objective lens (10×NA 0.3, 20×NA 0.75: Olympus) was used for the screening in FIG. 3, and an oil immersion objective lens (100× NA 1.4: Olympus) was used in the observations in FIGS. 5, 8, 9, and 10.
The HeLa cell medium was drawn up and washed with HBS buffer solution (25 mM HEPES, 125 mM NaCl, 2.5 mM KCl, 2 mM CaCl2, 1 mM MgCl2, and 25 mM D-glucose; pH 7.4), and cells were then observed in the HBS buffer solution including 6SiR-DNP at a concentration of 100 nM or 10 nM. Image capture was started 5 minutes after the 6SiR-DNP was added. Images were analyzed using ImageJ (NIH).
5D4 expressed at an arbitrary site in a cell was labeled with 6SiR-DNP, and the ability to observe a fluorescence image using a fluorescence microscope was investigated. When cells expressing only ECFP were loaded with 6SiR-DNP (FIG. 8A), and when ECFP to which 5D4 was added was expressed in cells but the cells were not loaded with 6SiR-DNP, a fluorescence signal due to 6SiR-DNP was not observed (FIG. 8B).
Using a β-tubulin protein as an observation object, a 5D4 fusion protein expression construct was transgenically introduced into a Hela cell. […] An attempt was also made to observe b-actin in the cell. When a fusion protein of β-actin and 5D4 was expressed in a HeLa cell and the cell was observed, a fibrous structure characteristic of β-actin was observed (FIG. 9B). In order to visualize F-actin internal to the cell, an expression construct in which a peptide sequence (Lifeact sequence) for specifically binding to F-actin was added to the N-terminus of 5D4 was transgenically introduced into a HeLa cell. A characteristic fibrous structure was observed that was similar to the structure observed when a fusion protein of β-actin and 5D4 was expressed in the cell (FIG. 9C).

Series [3] has as its system ECFP-5D4 (Y96F) with endoplasmic reticulum localization signal in HeLa cells. Nature of the series: Super-resolution imaging by single-molecule localization. Format: cell-based. The settings on record: 10 nM probe, 640 nm laser, relative to normal fluorescence microscope image. As to the method:
An ECFP-5D4 (Y96F) expression plasmid (pECFP-5D4 (Y96F)-ER) to which an endoplasmic reticulum localization signal sequence was added was introduced to HeLa cells cultured on a 96-well plate, using Lipofectamine 2000. At 20 hours after plasmid introduction, the cells were treated with trypsin/EDTA and stripped, and then re-seeded on a cover glass coated with collagen/poly-L-lysine. At 20 hours after re-seeding, the cells were washed with HBS, loaded with 10 nM 6SiR-DNP, and subjected to super-resolution imaging. A specimen was excited using a 640 nm semiconductor laser, and fluorescence intermittency images of a single molecule were continuously acquired at an exposure of 16 milliseconds by a backside-illuminated cooled EM-CCD camera (iXon, Andor Technology). A centroid position of a bright point of single-molecule fluorescence in each image was determined, and a super-resolution image was reconstructed.

The test system of a further series is 5D4. Nature of the series: Fluorescence change characteristics of fluorophore-DNP pair in presence and absence of 5D4. Format: biochemical, mouse. As to the method:
The anti-DNP scFv was expressed and purified as a fusion protein of maltose-binding protein. Escherichia coli BL21 (DE3) was transformed with the pMalc5E vector (pMalc5E-scFv) into which the purification object scFv sequence was introduced, and was cultured overnight on an LB medium plate including 100 μg/mL of ampicillin. A single colony was picked up and cultured overnight in 5 mL of a liquid LB medium including 100 μg/mL of ampicillin, and 1 mL of the resultant culture liquid was transferred to 100 mL of LB medium including 100 μg/mL of ampicillin. Shake culturing was performed at 200 rpm and a temperature of 37° C. until an optical density at 600 nm of 0.8 was reached, and after shake culturing was performed for 30 minutes at 15° C., IPTG was added to give a final concentration of 0.5 mM, and shake culturing was continued overnight. The E. coli were recovered after culturing and were disrupted using a sonicator. […] An eluate was replaced with PBS, and yield was quantified by the Bradford method, after which the eluate was subjected to the measurements described below.
RNA was extracted from the hybridomas of the resultant four clones, and cDNA fragments of the variable regions of the light chains and heavy chains of monoclonal antibodies were obtained by reverse transcription. The cDNA fragments of the variable regions of the light chains and heavy chains were connected via a linker sequence by overlap PCR, and scFv constructs were constructed only from subclones (4E10 and 5D4) derived from wells 1E10 and 3B12, respectively. […] The nucleic acid sequence of the cDNA sequence coding for 5D4 was identified by sequencing (SEQ ID NO: 8), an amino acid sequence determined from the result thereof was analyzed using the IMGT database (http://www.imgt.org/), and a […] region was specified (FIG. 4).
This fluorescence characteristic is similar to that of Cy5 dye, which is widely used in fluorescence imaging in cells. In the presence of 5D4, the fluorescence intensity of 6SiR-DNP was increased by a factor of 98 relative to the fluorescence intensity thereof in the absence of 5D4 (FIG. 6B). When fluorescence quantum yield of 6SiR-DNP in a state in which 6SiR-DNP is bound to 5D4 was measured, the fluorescence quantum yield in the presence of an excess of 5D4 was 0.57. This value for the fluorescence quantum yield is large, and is equal to or greater than that of Cy5 (quantum yield=0.2-0.4) and Cy5.5 (quantum yield=0.24), which are also highly versatile fluorescent dyes in cell labeling experiments (Q. Zheng et al., Ultra-stable organic fluorophores for single-molecule research. Chem Soc Rev 43, 1044-1056 (2014).).

For `CNC(=O)c1ccc(NCCOCCOCCNC(=O)c2ccc(C(=O)[O-])c(C3=C4C=CC(=[N+](C)C)C=C4[Si](C)(C)c4cc(N(C)C)ccc43)c2)c([N+](=O)[O-])c1` [6SiR-pCOONHMeoNP, 2-(7-(dimethylamino)-3-(dimethylimino)-5,5-dimethyl-3,5-dihydrodibenzo[b,e]silin-10-yl)-4-((2-(2-(2-((4-(methylcarbamoyl)-2-nitrophenyl)amino)ethoxy)ethoxy)ethyl)carbamoyl)benzoate], the “fluorescence signal after photobleaching” value in series [1] is “recovery of the fluorescence signal after photobleaching was observed”.

On to `CN(C)c1ccc2c(c1)[Si](C)(C)C1=CC(=[N+](C)C)C=CC1=C2c1cc(C(=O)NCCOCCOCCNc2ccc([N+](=O)[O-])cc2[N+](=O)[O-])ccc1C(=O)[O-]` [Probe 6SiR-DNP, 2-(7-(dimethylamino)-3-(dimethylimino)-5,5-dimethyl-3,5-dihydrodibenzo[b,e]silin-10-yl)-4-((2-(2-(2-((2,4-dinitrophenyl)amino)ethoxy)ethoxy)ethyl)carbamoyl)benzoate], for which the “fluorescent labeling at targeted intracellular sites” value in series [2] (ECFP-5D4 with localization peptide for nucleus, cell membrane, endoplasmic reticulum, final concentration 0.1 μM) was “fluorescent labeling at the targeted intracellular sites was accomplished for all the cells”. In addition, in series [2] (HeLa cell stained with 6SiR-DNP), the “fluorescence image of STIM1-5D4 fusion protein” value was “a structure running along the endoplasmic reticulum and microtubules was observed”. Moreover, the “fluorescence image of tubulin-5D4 fusion protein” value in series [2] (HeLa cell, 6SiR-DNP present in the extracellular fluid) is listed as “a fibrous structure characteristic of tubulin was observed”. In addition, in series [2] (HeLa cells expressing 5D4 as fusion protein with ECFP), the 6SiR-DNP fluorescence signal result was “observed covering the entire cytoplasm”. Also, the “fluorescence signal due to 6SiR-DNP” value in series [2] (cells expressing only ECFP loaded with 6SiR-DNP) is given as “not observed”. Moreover, in series [3], the “super-resolution image of endoplasmic reticulum” value was “visualized with high spatial resolution”. In addition, the fluorescence quantum yield in the series on 5D4 (bound to 5D4, in the presence of an excess of 5D4) came out at 0.57. Besides, the “fluorescence intensity increased by a factor relative to absence of 5D4” value with 5D4 (in the presence of 5D4) worked out at 98. Besides, in the series with 5D4 (when 5D4 was present), the absorption maximum turned out to be 653 nm and the fluorescence maximum is 668 nm.
